# From US10800791B2, “Triazole ACC inhibitors and uses thereof” (Gilead Apollo, LLC, priority 2015, dated 2020)
# Read-outs that look alike come from different tables or passages of the source.
# Key:
# [1] = target: human (hACC2) (Homo sapiens, UniProt O00763); assay: In vitro ACC inhibition assay (ADP-Glo), hACC2; format: biochemical; details: 5 nM ACC2, 20 μM ATP, 20 μM acetyl-CoA
# Experimental: The detailed procedure is as follows. […] 10 μL ADP glo reagent was added. […] 20 μL kinase detection reagent was added.
# [2] = tested on: C. albicans; assay: Antifungal Activity Assay (broth microtiter MIC), C. albicans; format: cell-based, Candida albicans; details: Candida albicans, ATCC90028, 48 h
# Method in brief: (§1)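 Broth microdilution per CLSI M27-A3 in RPMI 1640+MOPS, inoculum 2.5×10^3 CFU/mL final from overnight Sabouraud dextrose agar cultures at 35° C. Compounds diluted from DMSO stock to 128 μg/mL in water. MIC read visually versus growth control at 48 h.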
# [3] = tested on: C. krusei; assay: Antifungal Activity Assay (broth microtiter MIC), C. krusei; format: cell-based, Candida krusei; details: Pichia kudriavzevii, ATCC6258, 48 h
# Method in brief: as §1
# [4] = tested on: C. parapsilosis; assay: Antifungal Activity Assay (broth microtiter MIC), C. parapsilosis; format: cell-based, Candida parapsilosis; details: Lodderomyces parapsilosis, ATCC22019, 48 h
# Method in brief: as §1
# [5] = tested on: Botrtyis cinerea (Bc); assay: Growth inhibition assay of fungal pathogens, Bc; format: cell-based; details: 48 h
# Method in brief: (§2)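 Spores diluted in 17% V8 liquid media and incubated with compound at final 50, 10, 2 ppm or 2, 0.4, 0.08 ppm (2% DMSO). OD600 plus visual ratings at 24 and 48 hours, blank-subtracted; percent growth inhibition from 48 h readings relative to 2% DMSO control.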
# [6] = tested on: Diplodia maydis (Dm); assay: Growth inhibition assay of fungal pathogens, Dm; format: cell-based; details: Stenocarpella maydis, 48 h
# Method in brief: as §2
# [7] = tested on: Fusarium virguliforme (Fv); assay: Growth inhibition assay of fungal pathogens, Fv; format: cell-based; details: 48 h
# Method in brief: as §2
# [8] = tested on: Phytophthora capsici (Pc); assay: Growth inhibition assay of fungal pathogens, Pc; format: cell-based; details: 48 h
# Method in brief: as §2
# [9] = tested on: Rhizoctonia solani (Rs); assay: Growth inhibition assay of fungal pathogens, Rs; format: cell-based; details: 48 h
# [10] = target: fungal (fACC2) (UniProt Q00955); details: read-out: fACC2 (in vitro ACC2 Inhibition Assay, IC50), ADP-Glo, 5 nM ACC2, 20 μM ATP, 20 μM acetyl-CoA
# [11] = Table 3a, ATCC 90028, 3 replicates, MIC recorded at 48 h, read-out: MIC, C. albicans ATCC 90028
# [12] = Table 3b (additional results), ATCC 90028, 3 replicates, MIC recorded at 48 h, read-out: MIC, C. albicans ATCC 90028
# [13] = Table 3a, ATCC 6258, 3 replicates, MIC recorded at 48 h, read-out: MIC, C. krusei ATCC 6258
# [14] = Table 3b (additional results), ATCC 6258, 3 replicates, MIC recorded at 48 h, read-out: MIC, C. krusei ATCC 6258
# [15] = Table 3a, ATCC 22019, 3 replicates, MIC recorded at 48 h, read-out: MIC, C. parapsilosis ATCC 22019
# [16] = Table 3b (additional results), ATCC 22019, 3 replicates, MIC recorded at 48 h, read-out: MIC, C. parapsilosis ATCC 22019
# [17] = Botrtyis cinerea, growth inhibition at 48 hours vs 2% DMSO control, read-out: Concentration at 90% Inhibition Bc
# [18] = Botrtyis cinerea, growth inhibition vs 2% DMSO control at 48 hours, read-out: Concentration at 90% Inhibition Bc
# [19] = Diplodia maydis, growth inhibition at 48 hours vs 2% DMSO control, read-out: Concentration at 90% Inhibition Dm
# [20] = Diplodia maydis, growth inhibition vs 2% DMSO control at 48 hours, read-out: Concentration at 90% Inhibition Dm
# [21] = growth inhibition at 48 hours vs 2% DMSO control, read-out: Concentration at 90% Inhibition Fv
# [22] = growth inhibition vs 2% DMSO control at 48 hours, read-out: Concentration at 90% Inhibition Fv
# [23] = growth inhibition at 48 hours vs 2% DMSO control, read-out: Concentration at 90% Inhibition Pc
# [24] = growth inhibition vs 2% DMSO control at 48 hours, read-out: Concentration at 90% Inhibition Pc
# [25] = mycelial plugs, growth inhibition at 48 hours vs 2% DMSO control, read-out: Concentration at 90% Inhibition Rs
# [26] = mycelial plugs, growth inhibition vs 2% DMSO control at 48 hours, read-out: Concentration at 90% Inhibition Rs
# Chain of fungal (fACC2) (Q00955 whole entry): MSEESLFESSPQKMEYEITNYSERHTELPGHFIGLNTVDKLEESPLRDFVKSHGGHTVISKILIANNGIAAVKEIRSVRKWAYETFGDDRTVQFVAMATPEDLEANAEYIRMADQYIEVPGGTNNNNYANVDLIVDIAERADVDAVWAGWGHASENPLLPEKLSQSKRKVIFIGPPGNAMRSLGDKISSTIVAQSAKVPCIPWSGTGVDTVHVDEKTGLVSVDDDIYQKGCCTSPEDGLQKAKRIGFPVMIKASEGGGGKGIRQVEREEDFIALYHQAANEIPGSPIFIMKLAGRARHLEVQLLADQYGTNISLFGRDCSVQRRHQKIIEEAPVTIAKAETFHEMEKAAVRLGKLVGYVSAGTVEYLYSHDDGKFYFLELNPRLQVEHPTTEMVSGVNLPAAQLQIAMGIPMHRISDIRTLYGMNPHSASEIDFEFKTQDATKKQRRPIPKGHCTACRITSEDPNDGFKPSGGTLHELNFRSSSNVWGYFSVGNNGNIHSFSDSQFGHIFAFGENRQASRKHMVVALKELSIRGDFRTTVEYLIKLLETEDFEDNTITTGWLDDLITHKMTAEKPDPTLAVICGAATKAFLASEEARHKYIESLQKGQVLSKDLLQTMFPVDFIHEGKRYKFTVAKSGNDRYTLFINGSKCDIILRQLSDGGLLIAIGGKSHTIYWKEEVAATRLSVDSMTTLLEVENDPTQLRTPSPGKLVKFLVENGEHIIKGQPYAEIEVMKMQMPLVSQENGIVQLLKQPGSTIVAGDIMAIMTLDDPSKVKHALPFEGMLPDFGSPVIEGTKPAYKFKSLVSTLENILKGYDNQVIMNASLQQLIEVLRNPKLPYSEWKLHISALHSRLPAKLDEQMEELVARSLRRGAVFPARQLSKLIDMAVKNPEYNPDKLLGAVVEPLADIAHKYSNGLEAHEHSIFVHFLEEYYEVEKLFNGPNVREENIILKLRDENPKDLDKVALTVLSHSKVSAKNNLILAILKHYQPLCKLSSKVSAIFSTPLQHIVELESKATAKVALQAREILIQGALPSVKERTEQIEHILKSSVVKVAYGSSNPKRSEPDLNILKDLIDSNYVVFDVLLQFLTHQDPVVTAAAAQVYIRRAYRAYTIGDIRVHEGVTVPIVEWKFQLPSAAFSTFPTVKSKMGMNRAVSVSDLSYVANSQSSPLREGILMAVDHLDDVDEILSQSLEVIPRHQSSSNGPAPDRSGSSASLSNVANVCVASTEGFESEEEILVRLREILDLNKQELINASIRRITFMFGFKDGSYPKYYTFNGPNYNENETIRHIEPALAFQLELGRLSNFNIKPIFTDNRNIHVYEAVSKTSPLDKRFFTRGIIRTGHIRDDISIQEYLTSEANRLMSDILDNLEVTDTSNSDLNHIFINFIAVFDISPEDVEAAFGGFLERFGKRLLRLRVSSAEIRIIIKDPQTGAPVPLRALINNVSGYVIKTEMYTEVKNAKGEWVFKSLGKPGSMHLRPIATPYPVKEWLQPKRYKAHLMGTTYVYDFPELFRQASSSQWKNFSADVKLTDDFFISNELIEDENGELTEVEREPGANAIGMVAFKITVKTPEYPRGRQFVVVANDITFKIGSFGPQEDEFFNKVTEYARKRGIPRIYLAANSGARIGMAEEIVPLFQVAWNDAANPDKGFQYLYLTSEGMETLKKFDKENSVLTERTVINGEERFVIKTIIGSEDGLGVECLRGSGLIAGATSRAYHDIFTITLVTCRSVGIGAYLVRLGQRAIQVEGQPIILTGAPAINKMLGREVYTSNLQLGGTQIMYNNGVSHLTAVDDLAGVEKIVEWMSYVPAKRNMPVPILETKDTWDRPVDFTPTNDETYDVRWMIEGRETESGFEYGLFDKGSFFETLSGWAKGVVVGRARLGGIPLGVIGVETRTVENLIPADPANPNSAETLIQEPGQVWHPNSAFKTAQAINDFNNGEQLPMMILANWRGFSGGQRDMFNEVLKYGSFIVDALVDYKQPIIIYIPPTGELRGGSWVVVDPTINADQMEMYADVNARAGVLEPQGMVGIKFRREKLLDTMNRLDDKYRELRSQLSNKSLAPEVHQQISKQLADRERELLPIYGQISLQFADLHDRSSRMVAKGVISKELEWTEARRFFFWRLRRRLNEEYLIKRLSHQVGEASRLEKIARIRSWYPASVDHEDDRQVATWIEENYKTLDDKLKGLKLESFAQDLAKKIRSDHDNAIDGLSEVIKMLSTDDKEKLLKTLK
# Chain of human (hACC2) (O00763 whole entry): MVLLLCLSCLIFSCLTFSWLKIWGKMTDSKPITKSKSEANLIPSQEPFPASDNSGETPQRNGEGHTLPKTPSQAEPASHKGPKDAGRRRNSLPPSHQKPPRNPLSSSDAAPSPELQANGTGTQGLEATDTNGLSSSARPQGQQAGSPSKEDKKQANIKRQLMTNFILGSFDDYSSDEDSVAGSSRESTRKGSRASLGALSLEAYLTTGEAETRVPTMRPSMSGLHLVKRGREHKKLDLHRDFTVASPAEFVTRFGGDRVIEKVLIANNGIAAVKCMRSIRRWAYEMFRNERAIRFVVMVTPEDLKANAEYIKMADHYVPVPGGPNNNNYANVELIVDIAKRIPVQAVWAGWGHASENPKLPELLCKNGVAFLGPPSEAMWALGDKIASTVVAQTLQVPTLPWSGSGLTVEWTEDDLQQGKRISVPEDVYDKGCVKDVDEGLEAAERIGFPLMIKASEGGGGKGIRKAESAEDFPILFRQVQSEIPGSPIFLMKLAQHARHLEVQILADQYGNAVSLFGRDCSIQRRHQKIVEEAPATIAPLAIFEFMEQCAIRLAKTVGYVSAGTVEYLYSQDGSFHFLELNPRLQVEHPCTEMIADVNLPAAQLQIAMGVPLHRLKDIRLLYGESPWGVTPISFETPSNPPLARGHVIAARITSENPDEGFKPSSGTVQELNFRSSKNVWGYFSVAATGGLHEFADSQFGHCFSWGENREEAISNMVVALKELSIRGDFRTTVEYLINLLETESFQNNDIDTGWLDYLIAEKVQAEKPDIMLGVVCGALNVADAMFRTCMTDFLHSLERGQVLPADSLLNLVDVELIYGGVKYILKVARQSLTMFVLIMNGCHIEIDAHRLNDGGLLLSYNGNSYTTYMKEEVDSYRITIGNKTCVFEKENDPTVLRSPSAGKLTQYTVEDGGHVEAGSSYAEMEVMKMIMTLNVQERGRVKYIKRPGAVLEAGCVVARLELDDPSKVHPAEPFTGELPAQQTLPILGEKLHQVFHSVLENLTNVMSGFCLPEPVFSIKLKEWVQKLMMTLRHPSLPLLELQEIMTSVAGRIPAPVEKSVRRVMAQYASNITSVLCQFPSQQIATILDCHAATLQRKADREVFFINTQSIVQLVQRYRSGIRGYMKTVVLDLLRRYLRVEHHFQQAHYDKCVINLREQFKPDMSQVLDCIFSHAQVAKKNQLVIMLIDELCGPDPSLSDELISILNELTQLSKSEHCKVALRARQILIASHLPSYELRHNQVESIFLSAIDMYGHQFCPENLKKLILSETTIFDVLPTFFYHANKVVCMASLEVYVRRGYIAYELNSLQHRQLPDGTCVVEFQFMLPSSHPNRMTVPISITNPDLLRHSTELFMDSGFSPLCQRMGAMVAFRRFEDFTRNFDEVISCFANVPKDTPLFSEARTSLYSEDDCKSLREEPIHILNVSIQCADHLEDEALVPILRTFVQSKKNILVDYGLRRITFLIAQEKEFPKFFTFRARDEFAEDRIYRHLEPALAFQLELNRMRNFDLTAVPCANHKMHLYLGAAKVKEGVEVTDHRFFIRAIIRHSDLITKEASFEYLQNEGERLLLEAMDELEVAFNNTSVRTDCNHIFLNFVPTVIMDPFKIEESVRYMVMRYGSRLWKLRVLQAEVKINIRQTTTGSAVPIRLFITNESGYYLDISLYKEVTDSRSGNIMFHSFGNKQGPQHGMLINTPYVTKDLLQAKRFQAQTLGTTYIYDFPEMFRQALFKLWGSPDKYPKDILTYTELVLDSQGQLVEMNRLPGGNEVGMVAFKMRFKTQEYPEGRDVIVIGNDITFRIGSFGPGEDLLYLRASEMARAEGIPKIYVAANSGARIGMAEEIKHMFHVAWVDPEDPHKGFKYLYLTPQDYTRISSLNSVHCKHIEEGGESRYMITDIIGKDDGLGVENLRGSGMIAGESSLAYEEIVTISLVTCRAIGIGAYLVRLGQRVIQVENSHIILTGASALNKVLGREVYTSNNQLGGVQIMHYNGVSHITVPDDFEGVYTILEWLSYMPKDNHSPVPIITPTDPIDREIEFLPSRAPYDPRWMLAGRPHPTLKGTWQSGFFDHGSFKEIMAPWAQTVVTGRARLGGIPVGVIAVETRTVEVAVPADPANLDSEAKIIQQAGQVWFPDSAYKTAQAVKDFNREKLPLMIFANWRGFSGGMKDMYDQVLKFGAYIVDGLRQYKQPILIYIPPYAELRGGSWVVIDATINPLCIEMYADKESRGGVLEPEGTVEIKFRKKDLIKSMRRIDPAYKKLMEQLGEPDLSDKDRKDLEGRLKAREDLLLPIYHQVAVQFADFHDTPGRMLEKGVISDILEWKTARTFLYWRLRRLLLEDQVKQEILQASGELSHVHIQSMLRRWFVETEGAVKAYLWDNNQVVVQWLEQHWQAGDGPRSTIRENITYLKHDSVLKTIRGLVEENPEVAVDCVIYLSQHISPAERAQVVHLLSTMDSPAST
Structure (SMILES),IC50 ([1]; Table 2a),"IC50 ([1]; Table 2b, additional results)","MIC [2, 11]","MIC [2, 12]","MIC [3, 13]","MIC [3, 14]","MIC [4, 15]","MIC [4, 16]","IC90 [5, 17]","IC90 [5, 18]","IC90 [6, 19]","IC90 [6, 20]","IC90 [7, 21]","IC90 [7, 22]","IC90 [8, 23]","IC90 [8, 24]","IC90 [9, 25]","IC90 [9, 26]",IC50 ([10]; Table 2a),"IC50 ([10]; Table 2b, additional results)",also measured
"Cc1c(-n2nccn2)sc2c1c(=O)n(C(C)(C)C(=O)NC(C)C)c(=O)n2C[C@H](OC(C)C)c1cc(F)ccc1OCCO [Compound I-53, (R)-2-(1-(2-(5-fluoro-2-(2-hydroxyethoxy)phenyl)-2-isopropoxyethyl)-5-methyl-2,4-dioxo-6-(2H-1,2,3-triazol-2-yl)-1,4-dihydrothieno[2,3-d]pyrimidin-3(2H)-yl)-N-isopropyl-2-methylpropanamide]",10 to 40 nM,10 to 40 nM,0.25 to 1 µg/mL,0.25 to 1 µg/mL,0.25 to 1 µg/mL,0.06 to 0.249 µg/mL,0.25 to 1 µg/mL,1.01 to 2 µg/mL,0.4 µg/mL,0.4 µg/mL,0.4 µg/mL,0.4 µg/mL,0.4 µg/mL,0.4 µg/mL,> 50 µg/mL,> 50 µg/mL,0.08 µg/mL,0.08 µg/mL,1 to 5 nM,1 to 5 nM,
"COCCOc1ccc(F)cc1[C@H](Cn1c(=O)n(C(C)(C)C(=O)NC(C)C)c(=O)c2c(C)c(-n3nccn3)sc21)OC(C)C [Compound I-54, (R)-2-(1-(2-(5-fluoro-2-(2-methoxyethoxy)phenyl)-2-isopropoxyethyl)-5-methyl-2,4-dioxo-6-(2H-1,2,3-triazol-2-yl)-1,4-dihydrothieno[2,3-d]pyrimidin-3(2H)-yl)-N-isopropyl-2-methylpropanamide]",10 to 40 nM,10 to 40 nM,0.25 to 1 µg/mL,0.25 to 1 µg/mL,0.25 to 1 µg/mL,0.25 to 1 µg/mL,0.25 to 1 µg/mL,1.01 to 2 µg/mL,0.4 µg/mL,0.4 µg/mL,0.08 µg/mL,0.08 µg/mL,0.4 µg/mL,0.4 µg/mL,> 50 µg/mL,> 50 µg/mL,0.4 µg/mL,0.4 µg/mL,1 to 5 nM,1 to 5 nM,
"Cc1c(-n2nccn2)sc2c1c(=O)n(C(C)(C)C(=O)NC(C)C)c(=O)n2C[C@H](OC(C)C)c1cc(F)ccc1OCC1COC1 [Compound I-55, (R)-2-(1-(2-(5-fluoro-2-(oxetan-3-ylmethoxy)phenyl)-2-isopropoxyethyl)-5-methyl-2,4-dioxo-6-(2H-1,2,3-triazol-2-yl)-1,4-dihydrothieno[2,3-d]pyrimidin-3(2H)-yl)-N-isopropyl-2-methylpropanamide]",10 to 40 nM,10 to 40 nM,0.25 to 1 µg/mL,1.01 to 2 µg/mL,0.25 to 1 µg/mL,1.01 to 2 µg/mL,0.25 to 1 µg/mL,1.01 to 2 µg/mL,0.4 µg/mL,0.4 µg/mL,0.4 µg/mL,0.4 µg/mL,0.4 µg/mL,0.4 µg/mL,> 50 µg/mL,> 50 µg/mL,0.4 µg/mL,0.4 µg/mL,1 to 5 nM,1 to 5 nM,
"Cc1c(-n2nccn2)sc2c1c(=O)n(C(C)(C)C(=O)NC(C)C)c(=O)n2C[C@H](OC(C)C)c1cc(F)ccc1OCC#N [Compound I-56, (R)-2-(1-(2-(2-(cyanomethoxy)-5-fluorophenyl)-2-isopropoxyethyl)-5-methyl-2,4-dioxo-6-(2H-1,2,3-triazol-2-yl)-1,4-dihydrothieno[2,3-d]pyrimidin-3(2H)-yl)-N-isopropyl-2-methylpropanamide]",10 to 40 nM,10 to 40 nM,,,,,,,,,,,,,,,,,1 to 5 nM,1 to 5 nM,"MIC ([2]; read-out: MIC, C. albicans ATCC 90028, Table 3a, 3 replicates, MIC recorded at 48 h): 0.25 to 1 µg/mL; MIC ([2]; read-out: MIC, C. albicans ATCC 90028, Table 3b (additional results), 3 replicates, MIC recorded at 48 h): 1.01 to 2 µg/mL; MIC ([3]; read-out: MIC, C. krusei ATCC 6258, Table 3a, 3 replicates, MIC recorded at 48 h): 0.06 to 0.24 µg/mL; MIC ([3]; read-out: MIC, C. krusei ATCC 6258, Table 3b (additional results), 3 replicates, MIC recorded at 48 h): 0.25 to 1 µg/mL; MIC ([4]; read-out: MIC, C. parapsilosis ATCC 22019, Table 3a, 3 replicates, MIC recorded at 48 h): 0.25 to 1 µg/mL; MIC ([4]; read-out: MIC, C. parapsilosis ATCC 22019, Table 3b (additional results), 3 replicates, MIC recorded at 48 h): 1.01 to 2 µg/mL; IC90 ([5]; read-out: Concentration at 90% Inhibition Bc, Botrtyis cinerea, growth inhibition at 48 hours vs 2% DMSO control): 0.4 µg/mL; IC90 ([5]; read-out: Concentration at 90% Inhibition Bc, Botrtyis cinerea, growth inhibition vs 2% DMSO control at 48 hours): 0.4 µg/mL; IC90 ([6]; read-out: Concentration at 90% Inhibition Dm, Diplodia maydis, growth inhibition at 48 hours vs 2% DMSO control): 0.4 µg/mL; IC90 ([6]; read-out: Concentration at 90% Inhibition Dm, Diplodia maydis, growth inhibition vs 2% DMSO control at 48 hours): 0.4 µg/mL; IC90 ([7]; read-out: Concentration at 90% Inhibition Fv, Fusarium virguliforme, growth inhibition at 48 hours vs 2% DMSO control): 0.08 µg/mL; IC90 ([7]; read-out: Concentration at 90% Inhibition Fv, Fusarium virguliforme, growth inhibition vs 2% DMSO control at 48 hours): 0.08 µg/mL; IC90 ([8]; read-out: Concentration at 90% Inhibition Pc, Phytophthora capsici, growth inhibition at 48 hours vs 2% DMSO control): > 50 µg/mL; IC90 ([8]; read-out: Concentration at 90% Inhibition Pc, Phytophthora capsici, growth inhibition vs 2% DMSO control at 48 hours): > 50 µg/mL; IC90 ([9]; read-out: Concentration at 90% Inhibition Rs, Rhizoctonia solani, mycelial plugs, growth inhibition at 48 hours vs 2% DMSO control): 2 µg/mL; IC90 ([9]; read-out: Concentration at 90% Inhibition Rs, Rhizoctonia solani, mycelial plugs, growth inhibition vs 2% DMSO control at 48 hours): 2 µg/mL"
